Legend:
49H.8 = details: inhibitor concentration of 2 mg/ml; cited from earlier work
[1] = tested on: TF Antigen Binding with MAb 49H.8 (Ta3-Ha Conditioned Medium); test: Inhibition of TF antigen binding with MAb 49H.8 by synthetic carbohydrates in SRIA, Ta3-Ha conditioned medium; set-up: species or system murine
Method: (§1) Breakable strips of microtitre wells were coated with MAb […].8 or a control antibody (MOPC-104E), 1 μg/well, by overnight incubation at 4° C. The wells were then serially incubated with FBS 5% in PBS at 37° C. for 30 minutes, with antigen solution at 37° C. for two hours, and with radioiodinated PNA (2×10^5 cpm/well) at room temperature for two hours. The wells were washed with PBS containing 0.05% Tween-20 after each of the above steps. Each well was counted for ^125 I activity using a gamma counter.

[2] = tested on: TF Antigen Binding with MAb 49H.8 (647V Conditioned Medium); test: Inhibition of TF antigen binding with MAb 49H.8 by synthetic carbohydrates in SRIA, 647V conditioned medium; set-up: species or system human
Method: as §1

[3] = tested on: TF Antigen Binding with MAb 49H.8 (LS174T Conditioned Medium); test: Inhibition of TF antigen binding with MAb 49H.8 by synthetic carbohydrates in SRIA, LS174T conditioned medium; set-up: species or system human
Method: as §1

[4] = tested on: TF Antigen Binding with MAb 49H.8 (PE89); test: Inhibition of TF antigen binding with MAb 49H.8 by synthetic carbohydrates in SRIA, PE89; set-up: species or system human
Method: as §1

[5] = tested on: antigen capture by MAb 49H.8; test: Inhibition of the antigen capture by synthetic carbohydrate haptens; format: binding
Method: as §1

carcinoma cell lines = details: all nine cell lines named; cited from earlier work

OC[C@H]1OC(O)[C@H](O)[C@@H](O)[C@H]1O (stereo partly drawn) [D-Gal]
inhibition in binding of 49H.8 to neuraminidase-treated erythrolytes (49H.8): 5%

OC[C@H]1O[C@@H](Oc2ccccc2)[C@H](O)[C@@H](O)[C@H]1O [Phenyl-β-D-galactoside]
% Inhibition ± SD, Ta3-Ha Conditioned Medium ([1]; inhibitor 5 mM): 69.40% | % Inhibition ± SD, Ta3-Ha Conditioned Medium ([1]; inhibitor 10 mM): 96.25% | % Inhibition ± SD, 647V Conditioned Medium ([2]; inhibitor 5 mM): 66.60% | % Inhibition ± SD, 647V Conditioned Medium ([2]; inhibitor 10 mM): 90.12% | % Inhibition ± SD, LS174T Conditioned Medium ([3]; inhibitor 5 mM): 86.95% | % Inhibition ± SD, LS174T Conditioned Medium ([3]; inhibitor 10 mM): 95.91% | % Inhibition ± SD, PE89 ([4]; inhibitor 5 mM): 45.48% | % Inhibition ± SD, PE89 ([4]; inhibitor 10 mM): 69.04% | Inhibition of the positive reactivity in the sandwich assay (in words) [5]: inhibited

OC[C@H]1O[C@@H](Oc2ccccc2)[C@H](O)[C@@H](O)[C@@H]1O [Phenyl-β-D-glucoside]
% Inhibition ± SD, Ta3-Ha Conditioned Medium ([1]; inhibitor 5 mM): 3.92% | % Inhibition ± SD, Ta3-Ha Conditioned Medium ([1]; inhibitor 10 mM): 1.38% | % Inhibition ± SD, 647V Conditioned Medium ([2]; inhibitor 5 mM): -3.00% | % Inhibition ± SD, 647V Conditioned Medium ([2]; inhibitor 10 mM): 0.58% | % Inhibition ± SD, LS174T Conditioned Medium ([3]; inhibitor 5 mM): -7.15% | % Inhibition ± SD, LS174T Conditioned Medium ([3]; inhibitor 10 mM): -1.67% | % Inhibition ± SD, PE89 ([4]; inhibitor 5 mM): -6.41% | % Inhibition ± SD, PE89 ([4]; inhibitor 10 mM): -4.61% | Inhibition of the positive reactivity in the sandwich assay (in words) [5]: did not show any inhibition

CC(=O)N[C@@H]1[C@@H](O[C@@H]2O[C@H](CO)[C@H](O)[C@H](O)[C@H]2O)[C@@H](O)[C@@H](CO)O[C@@H]1O [TF disaccharide, D-β-Gal (1-3)-α-GalNAc]
inhibition in binding of 49H.8 to neuraminidase-treated erythrolytes (49H.8): 33%

CC(=O)N[C@@H]1[C@@H](O[C@@H]2O[C@H](CO)[C@H](O)[C@H](O)[C@H]2O)[C@@H](O)[C@@H](CO)O[C@H]1O [beta anomer]
inhibition in binding of 49H.8 to neuraminidase-treated erythrolytes (49H.8): 29%

O=[N+]([O-])c1ccc(O[C@@H]2O[C@H](CO)[C@H](O)[C@H](O)[C@H]2O)cc1 [p-nitrophenyl-β-D-galactoside]
Inhibition of the positive reactivity in the sandwich assay (in words) [5]: inhibited

p-nitrophenyl-α-D-galactoside [p-nitrophenyl α-D-galactoside]
Inhibition of the positive reactivity in the sandwich assay (in words) [5]: did not show any inhibition

B1: PNA: lectin extracted from the peanut (Arachis hypogaea) which recognizes the terminal disaccharide of the TF-antigen (protein, UniProt P02872 24-273, looked up)
Galactose-binding lectin: AETVSFNFNSFSEGNPAINFQGDVTVLSNGNIQLTNLNKVNSVGRVLYAMPVRIWSSATGNVASFLTSFSFEMKDIKDYDPADGIIFFIAPEDTQIPAGSIGGGTLGVSDTKGAGHFVGVEFDTYSNSEYNDPPTDHVGIDVNSVDSVKTVPWNSVSGAVVKVTVIYDSSTKTLSVAVTNDNGDITTIAQVVDLKAKLPERVKFGFSASGSLGGRQIHLIRSWSFTSTLITTTRRSIDNNEKKIMNMASA
Binding to carcinoma cell lines (carcinoma cell lines): marked
